The record followed here is patent EP0539170A1, “Benzodiazepine derivatives and their use as antagonists of cholecystokinin and/or gastrin receptors” (priority 1991, dated 1993).

SMILES strings stand for the structures.

The test concerns the target T1, CCK Receptor (Pancreas) (Rattus norvegicus, UniProt P30551).
T1 construct: The whole pancreas was dissected free of fat tissue and was homogenized; from tissue; host or cells: rat pancreas membrane homogenate
T1 sequence (P30551 1-444): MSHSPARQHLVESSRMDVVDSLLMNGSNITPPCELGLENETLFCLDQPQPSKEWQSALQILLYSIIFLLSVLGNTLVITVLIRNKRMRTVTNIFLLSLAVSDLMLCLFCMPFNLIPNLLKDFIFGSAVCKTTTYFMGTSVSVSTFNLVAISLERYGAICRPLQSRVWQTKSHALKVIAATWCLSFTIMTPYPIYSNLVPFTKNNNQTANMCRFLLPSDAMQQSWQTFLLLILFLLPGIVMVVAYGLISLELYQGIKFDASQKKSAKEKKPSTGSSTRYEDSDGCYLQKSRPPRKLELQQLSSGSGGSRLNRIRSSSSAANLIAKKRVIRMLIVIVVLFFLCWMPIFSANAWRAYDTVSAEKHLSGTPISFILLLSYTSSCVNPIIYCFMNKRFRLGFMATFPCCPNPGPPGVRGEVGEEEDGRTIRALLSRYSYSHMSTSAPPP
The test is described as follows: CCK Receptor Binding (Pancreas), inhibition of specific 125I-CCK-8 binding. Further details: species or system Sprague-Dawley rats. To be noted: rat whole pancreas membranes; 50 pM 125I-CCK-8; 25°C for 2 hours. The protocol: CCK-8 sulphated was radiolabelled with ¹²⁵I-Bolton Hunter reagent (2000 Ci/mmole). Receptor binding was performed according to Chang and Lotti (Proc. Natl. Acad. Sci. 83, 4923-4926, 1986) with minor modifications.
Male Sprague-Dawley rats (150-200g) were sacrificed by decapitation. The whole pancreas was dissected free of fat tissue and was homogenized in 25 volumes of ice-cold 10 mM N-2-hydroxyethyl-piperazine-N′-2-ethane sulphonic acid (HEPES) buffer with 0.1% soya bean trypsin inhibitor (pH 7.4 at 25°C) with a Kinematica Polytron. The homogenates were centrifuged at 47,800 g for 10 min. Pellets were resuspended in 10 volumes of binding assay buffer (20mM (HEPES)), 1mM ethylene glycol-bis-(β-aminoethylether-N,N′-tetraacetic acid) (EGTA), 5mM MgCl₂, 150 mM NaCl, bacitracin 0.25 mg/ml, soya bean trypsin inhibitor 0.1 mg/ml, and bovine serum albumin 2 mg/ml pH 6.5 at 25°C) using a Teflon (trademark) homogenizer, 15 strokes at 500 rpm. The homogenate was further diluted in binding assay buffer to give a final concentration of 0.5 mg original wet weight/1 ml buffer. […] All assays were run in duplicate. The reaction mixtures were incubated at 25°C for 2 hours and the reaction terminated by rapid filtration (Brandell 24 well cell harvester) over Whatman GF/C filters, washing 3 x 4 mls with ice-cold 100 Mm NaCl. The radioactivity on the filters was counted with a LKB gamma counter.
Drug displacement studies were performed with at least 10 concentrations of compounds of Formula I and the IC₅₀ values were determined by regression analysis IC₅₀ refers to the concentration of the compound required to inhibit 50% of specific binding of ¹²⁵I-CCK-8.
Consider `CN1CCN(C2=NC(NC(=O)Nc3ccccc3)C(=O)N(C)c3ccccc32)CC1` (racemic) [Example 31, N-[3(R,S)-2,3-Dihydro-1-methyl-2-oxo-5-(4-methylpiperazin-1-yl)-1H-1,4-benzodiazepin-3-yl]-N′-phenyl urea], for which the IC50 was 3.45 µM.
Regarding `CCCN1C(=O)C(NC(=O)Nc2ccc3c(c2)CCC3)N=C(N2CCN(C)CC2)c2ccccc21` (racemic) [Example 33, N-[3(R,S)-2,3-Dihydro-5-(4-methylpiperazin-1-yl)-2-oxo-1-propyl-1H-1,4-benzodiazepin-3-yl]-N′-[5-indanyl] urea], the IC50 is above 3 µM.
`CCCN1C(=O)C(NC(=O)Nc2cccc(C)c2)N=C(N2CCNCC2)c2ccccc21` (racemic) [Example 36, N-[3(R,S)-2,3-Dihydro-2-oxo-5-(piperazin-1-yl)-1-propyl-1H-1,4-benzodiazepin-3-yl]-N′-[3-methylphenyl] urea] returned an IC50 above 3 µM.
Molecule `CCCN1C(=O)C(NC(=O)Nc2cccc(C)c2)N=C(N2CCN(CC)CC2)c2ccccc21` (racemic) [Example 37, N-[3(R,S)-2,3-Dihydro-5-(4-ethylpiperazin-1-yl)-2-oxo-1-propyl-1H-1,4-benzodiazepin-3-yl]-N#MIN#-[3-methylphenyl] urea] gave an IC50 of 3.73 µM.
`CCCN1C(=O)C(NC(=O)Nc2cccc(C)c2)N=C(N2CCN(C)CC2)c2cc(C)ccc21` (racemic) [Example 38, N-(3(R,S)-2,3-Dihydro-7-methyl-5-(4-methylpiperazin-1-yl)-2-oxo-1-propyl-1H-1,4-benzodiazepin-3-yl]-N′-[3-methylphenyl]urea] registered an IC50 of 1.6 µM.
`CCCN1C(=O)C(NC(=O)Nc2cccc(NC(C)=O)c2)N=C(N2CCN(C)CC2)c2ccccc21` (racemic) [Example 39, N-[3(R,S)-2,3-Dihydro-5-(4-methylpiperazin-1-yl)-2-oxo-1-propyl-1H-1,4-benzodiazepin-3-yl]-N#MIN#-[3-(acetylamino)phenyl] urea] showed an IC50 above 3 µM.
`CCCN1C(=O)C(NC(=O)Nc2cccc(C)c2)N=C(N2CCN(C)CC2)c2ccc(C)cc21` (racemic) [Example 42, N-[3(R,S)-2,3-Dihydro-8-methyl-5-(4-methylpiperazin-1-yl)-2-oxo-1-propyl-1H-1,4-benzodiazepin-3-yl]-N′-[3-methylphenyl] urea] returned an IC50 of 0.711 µM.
The same measure for `Cc1cccc(NC(=O)NC2N=C(N3CCCCCCC3)c3ccccc3N(C)C2=O)c1` (racemic) [Example 43, N-[3(R,S)-2,3-Dihydro-5-(heptamethyleneimin-1-yl)-1-methyl-2-oxo-1H-1,4-benzodiazepin-3-yl]-N#MIN#-[3-methylphenyl] urea]: 0.0184 µM.
`CCCN1C(=O)C(NC(=O)Nc2cccc(C)c2)N=C(N2CCCCC2)c2ccccc21` (racemic) [Example 44, N-[3(R,S)-2,3-Dihydro-2-oxo-5-(piperidin-1-yl)-1-propyl-1H-1,4-benzodiazepin-3-yl]-N′-[3-methylphenyl] urea] had an IC50 of 0.12 µM.
Molecule `CCCN1C(=O)C(NC(=O)Nc2cccc(C)c2)N=C(N2CCN(C)CC2)c2ccc(N(C)C)cc21` (racemic) [Example 45, N-[3(R,S)-2,3-Dihydro-8-dimethylamino-5-(4-methylpiperazin-1-yl)-2-oxo-1-propyl-1H-1,4-benzodiazepin-3-yl]-N′-[3-methylphenyl] urea] registered a half-maximal inhibitory concentration (IC50) of 0.956 µM.
`CN1C(=O)C(NC(=O)Nc2ccc3c(c2)CCC3)N=C(N2CCCCCC2)c2ccccc21` (racemic) [Example 46, N-[3(R,S)-2,3-Dihydro-5-(homopiperidin-1-yl)-1-methyl-2-oxo-1H-1,4-benzodiazepin-3-yl]-N′-[5-indanyl] urea]: the IC50 is 0.0282 µM.
Consider `CCCN1C(=O)C(NC(=O)Nc2cccc(C)c2)N=C(N2CCCCCC2)c2ccccc21` (racemic) [Example 47, N-[3(R,S)-2,3-Dihydro-5-(homopiperidin-1-yl)-2-oxo-1-propyl-1H-1,4-benzodiazepin-3-yl]-N′-[3-methylphenyl] urea], for which the IC50 is 0.0234 µM.
As to `CN1C(=O)C(NC(=O)Nc2cccc(C(F)(F)F)c2)N=C(N2CCCCCC2)c2ccccc21` (racemic) [Example 48, N-[3(R,S)-2,3-Dihydro-5-(homopiperidin-1-yl)-1-methyl-2-oxo-1H-1,4-benzodiazepin-3-yl]-N′-[3-trifluoromethylphenyl] urea], the IC50 was 0.0314 µM.
In turn, `CN(C)c1cccc(NC(=O)NC2N=C(N3CCCCCC3)c3ccccc3N(C)C2=O)c1` (racemic) [Example 49, N-[3(R,S)-2,3-Dihydro-5-(homopiperidin-1-yl)-1-methyl-2-oxo-1H-1,4-benzodiazepin-3-yl]-N′-[3-(dimethylamino)phenyl] urea] had an IC50 of 0.0572 µM.
The same measure for `CN1C(=O)C(NC(=O)Nc2ccc(C(C)(C)C)cc2)N=C(N2CCCCCC2)c2ccccc21` (racemic) [Example 50, N-[3(R,S)-2,3-Dihydro-5-(homopiperidin-1-yl)-1-methyl-2-oxo-1H-1,4-benzodiazepin-3-yl]-N′-[4-t-butylphenyl] urea]: 0.815 µM; for `CCCN1C(=O)C(NC(=O)Nc2ccc(N(C)C)cc2)N=C(N2CCN(C)CC2)c2ccccc21` (racemic) [Example 53, N-[3(R,S)-2,3-Dihydro-5-(4-methylpiperazin-1-yl)-2-oxo-1-propyl-1H-1,4-benzodiazepin-3-yl]-#′-[4-(dimethylamino)phenyl] urea]: above 3 µM.
For `CC(C)c1ccc(NC(=O)NC2N=C(N3CCCCCC3)c3ccccc3N(C)C2=O)cc1` (racemic) [Example 54, N-[3(R,S)-2,3-Dihydro-5-(homopiperidin-1-yl)-1-methyl-2-oxo-1H-1,4-benzodiazepin-3-yl]-N′-[4-isopropylphenyl] urea], the IC50 was determined as 0.399 µM.
With `CCCN1C(=O)C(NC(=O)Nc2cccc(C)c2)N=C(N2CCSCC2)c2ccccc21` (racemic) [Example 55, N-[3(R,S)-2,3-Dihydro-2-oxo-1-propyl-5-(thiomorpholin-4-yl)-1H-1,4-benzodiazepin-3-yl]-N′-[3-methylphenyl] urea], the IC50 worked out at 0.337 µM.
In the case of `CCCN1C(=O)C(NC(=O)Nc2ccc3c(c2)N(C)CC3)N=C(N2CCN(C)CC2)c2ccccc21` (racemic) [Example 56, N-[3(R,S)-2,3-Dihydro-5-(4-methylpiperazin-1-yl)-2-oxo-1-propyl-1H-1,4-benzodiazepin-3-yl]-N#MIN#-[1-methyl-6-indolinyl] urea], the IC50 is above 3 µM.
The molecule `CN1C(=O)C(NC(=O)Nc2ccc(F)c(F)c2)N=C(N2CCCCCC2)c2ccccc21` (racemic) [Example 57, N-[3(R,S)-2,3-Dihydro-5-(homopiperidin-1-yl)-1-methyl-2-oxo-1H-1,4-benzodiazepin-3-yl]-N′-[3,4-difluorophenyl] urea] yielded an IC50 of 0.0167 µM.
Next, `CN1C(=O)C(NC(=O)Nc2cccc(F)c2)N=C(N2CCCCCC2)c2ccccc21` (racemic) [Example 60, N-[3(R,S)-2,3-Dihydro-5-(homopiperidin-1-yl)-1-methyl-2-oxo-1H-1,4-benzodiazepin-3-yl]-N′-[3-fluorophenyl] urea]: 0.00716 µM; `Cc1cccc(NC(=O)NC2N=C(N3CCCCCCCC3)c3ccccc3N(C)C2=O)c1` (racemic) [Example 61, N-[3(R,S)-2,3-Dihydro-1-methyl-5-(octamethyleneimin-1-yl)-2-oxo-1H-1,4-benzodiazepin-3-yl]-N#MIN#-[3-methylphenyl] urea]: 0.0361 µM.
`CN1C(=O)C(NC(=O)Nc2cccc(-c3cc(=O)c(O)co3)c2)N=C(N2CCCCCC2)c2ccccc21` (racemic) [Example 62, N-[3(R,S)-2,3-Dihydro-5-(homopiperidin-1-yl)-1-methyl-2-oxo-1H-1,4-benzodiazepin-3-yl]-N′-[3-(5-hydroxy-4-pyron-2-yl)phenyl] urea] came in with an IC50 of 0.0214 µM.
With `CCc1cccc(NC(=O)NC2N=C(N3CCCCCC3)c3ccccc3N(C)C2=O)c1` (racemic) [Example 63, N-[3(R,S)-2,3-Dihydro-5-(homopiperidin-1-yl)-1-methyl-2-oxo-1H-1,4-benzodiazepin-3-yl]-N′-[3-ethylphenyl] urea], the IC50 was found to be 0.00439 µM.
